Laboratory results: patent publication US20080119508A1, “Multi-Route Administration Of Immune Response Modifier Compounds” (3M INNOVATIVE PROPERTIES COMPANY, priority 2004, published 2008)

Test system: mouse colon carcinoma-26 cells (MC26) expressing luciferase
Assay: MC26-luciferase intradermal tumor model, in vivo photon counts (tumor growth index)
Set-up: species or system Balb/c mice
Details: combination of topical 5% IRM1 (30 microliters at tumor site) and subcutaneous IRM1 10 mg/kg, compared with single routes and vehicles; day 6 results in FIG. 1
Description: Mice were divided into five groups: topical vehicle, subcutaneous vehicle (SQ vehicle), IRM1 topical (topical IRM1), IRM1 subcutaneous (SQ IRM1), and IRM1 topical and subcutaneous (topical+SQ IRM1). Eighteen hours after injection of the cells, 30 microliters of vehicle or 5% IRM1 topical formulations, described in Table 3, was applied to the tumor site. Six hours later, mice were injected subcutaneously with 10 millograms per kilogram of IRM1 in a 1 milligram per milliliter IRM1, 0.03M citrate buffered saline solution or a vehicle 0.03M citrate buffered saline solution. On days 1, 5, and 6 mice were anesthetized with vaporized 3% isoflurane and in vivo photon counts of luciferin were measured using a Xenogen IVIS imaging system (Alameda, Calif.) following the manufacturer's protocol. The tumor growth index for each treatment group was calculated by dividing each group's day 5 or day 6 tumor photon counts by their day 1 tumor photon counts.

## CCc1nc2c(N)nc3ccccc3c2n1CCCCNS(C)(=O)=O [IRM1, N-[4-(4-amino-2-ethyl-1H-imidazo[4,5-c]quinolin-1-yl)butyl]methanesulfonamide]
  tumor growth index (day 5 or day 6 tumor photon counts divided by day 1 tumor photon counts): surprising benefit
